Among the data in patent US8445522B2, “Substituted 2-(4-pyridyl)benzoxazoles, and compositions thereof, for use in arthropod pest control” (Sumitomo Chemical Company, Limited, priority 2009, dated 2013) are pest or weed control values, retold here.

Where only a bound is given, the exact number is not on record here.

Common to all, as to assay type: in vivo
One assay deals with tobacco whitefly. Kind of assay: Test Example 4: test diluent scattered on tomato seedling with hatched tobacco whitefly larvae. The conditions noted are these: 168 h; 500 ppm, 10 ml/cup scattered on tomato seedling at larvae stage, counted after seven days at 25° C.; read-out: Control value. The method, then:
The formulations were diluted with water so that the concentration of the active ingredient became 500 ppm and thus test diluents were prepared. On the other hand, by releasing tobacco whitefly imagos to a tomato seedling planted in a plastic cup to allow them to lay eggs for about 24 hours. The tomato seedling was kept in a green house for eight days. At the stage in which larvae hatched from the laid eggs, any of the test diluents was scattered at the rate of 10 ml/cup. The tomato seedling was kept in the greenhouse at 25° C. for seven days. The number of survived larvae on tomato leaves was counted, and the control value was calculated by the following equation. Control value(%)={1−(Cb×Tai)/(Cai×Tb)}×100 wherein each character represents the following meaning: Cb: number of insects in non-treated section before treatment Cai: number of insects in non-treated section during observation Tb: number of insects in treated section before treatment Tai: number of insects in treated section during observation

Assay [1] relates to cotton aphids (Aphis gossypii Glover). The assay is described as follows: Test Example 1: test diluent scattered on cucumber seedling inoculated with cotton aphids. The conditions noted are these: 120 h, 500 ppm active ingredient, 10 ml scattered on cucumber seedling, counted five days after scattering, read-out: Control value. The method, then:
The formulations were diluted with water so that the concentration of the active ingredient became 500 ppm and thus test diluents were prepared. On the other hand, a cucumber seedling (second true leaf development stage) planted in a plastic cup was inoculated with about 30 cotton aphids (Aphis gossypii Glover) and allowed to stand for one day. To the seedling, any one of the diluents (10 ml) was scattered. Five days after the scattering, the number of survived cotton aphids parasitic on the cucumber leaves was counted, and the control value was calculated by the following equation. Control value(%)={1−(Cb×Tai)/(Cai×Tb)}×100 wherein each character represents the following meaning: Cb: the number of insects in non-treated section before treatment Cai: the number of insects in non-treated section during observation Tb: the number of insects in treated section before treatment Tai: the number of insects in treated section during observation

A further assay deals with cotton aphids. Kind of assay: Test Example 2: plant foot irrigation of cucumber seedling in urethane mat, cotton aphids inoculated one day after treatment. The conditions noted are these: 168 h; 500 ppm, 5 ml plant foot irrigation, urethane mat; aphids inoculated one day after treatment, counted seven days after; read-out: Control value. The method, then:
The formulations were diluted with water so that the concentration of the active ingredient became 500 ppm and thus test diluents were prepared. On the other hand, a plant foot of cucumber seedling (second true leaf development stage) planted in a urethane mat was irrigated with any one of diluents (5 ml). One day after the treatment, the cucumber leaves were inoculated with 30 cotton aphids (all stages). Further seven days after, the number of survived cotton aphids parasitic on the cucumber leaves was counted, and the control value was calculated by the following equation. Control value(%)={1−(Cb×Tai)/(Cai×Tb)}×100 wherein each character represents the following meaning: Cb: number of insects in non-treated section before treatment Cai: number of insects in non-treated section during observation Tb: number of insects in treated section before treatment Tai: number of insects in treated section during observation

Another assay deals with rice brown planthopper. Kind of assay: Test Example 6: plant foot irrigation of rice plant seedling, rice brown planthopper released after seven days. The conditions noted are these: Nilaparvata lugens, 144 h; 500 ppm, 5 ml plant foot irrigation of rice seedling; first-instars released after seven days, counted six days after; read-out: Control value. The method, then:
The formulations were diluted with water so that the concentration of the active ingredient became 500 ppm and thus test diluents were prepared. On the other hand, a plant foot of rice plant seedling (two weeks after seeding, second leaf development stage) planted in a plastic cup was irrigated with any one of diluents (5 ml). The seedling was kept in a green house of 25° C. for seven days. Thirty first-instars of rice brown planthopper were released to the seedling, which was kept in the green house at 25 C for six days. Thereafter, the number of survived rice brown planthopper parasitic on rice plant leaves was counted, and the control value was calculated by the following equation. Control value(%)={1−(Cb×Tai)/(Cai×Tb)}×100 wherein each character represents the following meaning: Cb: number of insects in non-treated section before treatment Cai: number of insects in non-treated section during observation Tb: number of insects in treated section before treatment Tai: number of insects in treated section during observation

As for `FC(F)(F)c1ccc2nc(-c3ccncc3)oc2n1` [Active Compound 153, 2-(pyridin-4-yl)-5-(trifluoromethyl)oxazolo[5,4-b]pyridine], in the assay with tobacco whitefly, the pest or weed control at 500 ppm was ≥ 90%.

For `FC(F)(F)c1ccc2nc(-c3ccncc3Cl)oc2n1` [Active Compound 154, 2-(3-chloropyridin-4-yl)-5-(trifluoromethyl)oxazolo[5,4-b]pyridine], the pest or weed control at 500 ppm in the assay with tobacco whitefly is ≥ 90%.

As for `CCc1ccc2oc(-c3ccncc3)nc2c1` [active compound 3, 5-ethyl-2-(pyridin-4-yl)-benzoxazole], the pest or weed control at 500 ppm with tobacco whitefly was ≥ 90%.

Take `CC(C)c1ccc2oc(-c3ccncc3)nc2c1` [active compound 5, 5-isopropyl-2-(pyridin-4-yl)-benzoxazole]: the pest or weed control at 500 ppm (with tobacco whitefly; in assay [1]) was ≥ 90% throughout.

With `CC(C)(C)c1ccc2oc(-c3ccncc3)nc2c1` [active compound 6, 5-tert-butyl-2-(pyridin-4-yl)-benzoxazole], the pest or weed control at 500 ppm (in the assay with tobacco whitefly; in assay [1]) was ≥ 90% each time.

`FC(F)(F)c1ccc2oc(-c3ccncc3I)nc2c1` [active compound 29, 2-(3-iodopyridin-4-yl)-5-(trifluoromethyl)benzoxazole]: in the assay on cotton aphids, the pest or weed control at 500 ppm is ≥ 90%.

For the compound `FC(F)(F)COc1cnccc1-c1nc2cc(C(F)(F)F)ccc2o1` [active compound 39, 2-[3-(2,2,2-trifluoroethyl)oxypyridin-4-yl]-5-(trifluoromethyl)benzoxazole], in the assay with rice brown planthopper, the pest or weed control at 500 ppm is ≥ 90%.

As for `CCSc1cnccc1-c1nc2cc(C(F)(F)F)ccc2o1` [active compound 41, 2-(3-ethylthiopyridin-4-yl)-5-(trifluoromethyl)benzoxazole], the pest or weed control at 500 ppm with rice brown planthopper is ≥ 90%.

For `Nc1cnccc1-c1nc2cc(C(F)(F)F)ccc2o1` [active compound 52, 2-(3-aminopyridin-4-yl)-5-(trifluoromethyl)benzoxazole], the pest or weed control at 500 ppm in the assay with tobacco whitefly is ≥ 90%.

In the case of `FC(F)(F)c1ccc2oc(-c3ccncc3N3CCCC3)nc2c1` [active compound 53, 2-[3-(pyrrolidine-1-yl)pyridin-4-yl]-5-(trifluoromethyl)benzoxazole], the pest or weed control at 500 ppm with tobacco whitefly was ≥ 90%.

Regarding `FC(F)(F)c1ccc2oc(-c3ccncc3N3CCOCC3)nc2c1` [active compound 55, 2-[3-(morpholin-4-yl)pyridin-4-yl]-5-(trifluoromethyl)benzoxazole], the pest or weed control at 500 ppm with cotton aphids was ≥ 90%.

For `FC(F)(F)c1ccc2oc(-c3ccncc3-n3ccnc3)nc2c1` [active compound 56, 2-[3-(imidazole-1-yl)pyridin-4-yl]-5-(trifluoromethyl)benzoxazole], the pest or weed control at 500 ppm with cotton aphids is ≥ 90%.

With `FC(F)(F)c1ccc2oc(-c3ccncc3OCC(F)(F)C(F)(F)F)nc2c1` [active compound 75, 2-[3-(2,2,3,3,3-pentafluoropropoxy)pyridin-4-yl]-5-(trifluoromethyl)benzoxazole], in the assay on rice brown planthopper, the pest or weed control at 500 ppm is ≥ 90%.

Regarding `FC(F)(F)Sc1ccc2oc(-c3ccncc3)nc2c1` [active compound 76, 2-(pyridin-4-yl)-5-(trifluoromethylthio)benzoxazole], the pest or weed control at 500 ppm in the assay on cotton aphids was ≥ 90%.

As to `FC(F)(F)COc1cnccc1-c1nc2cc(C(F)(F)F)c(Cl)cc2o1` [active compound 92, 6-chloro-2-[3-(2,2,2-trifluoroethoxy)pyridin-4-yl]-5-(trifluoromethyl)benzoxazole], the pest or weed control at 500 ppm with rice brown planthopper is ≥ 90%.

With `CCc1cnccc1-c1nc2cc(C(F)(F)F)c(Cl)cc2o1` [active compound 93, 6-chloro-2-(3-ethylpyridin-4-yl)-5-(trifluoromethyl)benzoxazole], the pest or weed control at 500 ppm with rice brown planthopper and in the assay on cotton aphids was ≥ 90% in each case.

For the compound `Fc1cc2oc(-c3ccncc3Cl)nc2cc1C(F)(F)F` [active compound 94], the pest or weed control at 500 ppm in the assay with cotton aphids is ≥ 90%.

Turning to `COc1cnccc1-c1nc2cc(C(C)(C)C)ccc2o1` [active compound 100, 5-tert-butyl-2-(3-methoxypyridin-4-yl)benzoxazole], the pest or weed control at 500 ppm (in the assay with tobacco whitefly; in the assay on rice brown planthopper; in assay [1]) was ≥ 90% in each case.

As for `CC(C)(C)c1ccc2oc(-c3ccncc3OCC(F)(F)F)nc2c1` [active compound 101, 5-tert-butyl-2-[3-(2,2,2-trifluoroethoxy)pyridin-4-yl]benzoxazole], the pest or weed control at 500 ppm (with tobacco whitefly; with rice brown planthopper; in assay [1]) was ≥ 90% each time.

`CC(C)Oc1cnccc1-c1nc2cc(C(C)(C)C)ccc2o1` [active compound 104, 5-tert-butyl-2-(3-isopropoxypyridin-4-yl)benzoxazole]: the pest or weed control at 500 ppm (with tobacco whitefly; in assay [1]) was ≥ 90% throughout.

Consider `CCc1cnccc1-c1nc2cc(C(C)(C)C)ccc2o1` [active compound 105, 5-tert-butyl-2-(3-ethylpyridin-4-yl)benzoxazole], for which the pest or weed control at 500 ppm (with tobacco whitefly; in assay [1]) was ≥ 90% each time.

Take `FC(F)COc1cnccc1-c1nc2cc(C(F)(F)F)ccc2o1` [active compound 110, 2-[3-(2,2-difluoroethoxy)pyridin-4-yl]-5-(trifluoromethyl)benzoxazole]: the pest or weed control at 500 ppm (in the assay on tobacco whitefly; in the assay on rice brown planthopper; in assay [1]; with cotton aphids) was ≥ 90% throughout.

For `CC(Oc1cnccc1-c1nc2cc(C(F)(F)F)ccc2o1)C(F)(F)F` (stereo not shown) [active compound 111, 2-[3-(1-methyl-2,2,2-trifluoroethoxy)pyridin-4-yl]-5-(trifluoromethyl)benzoxazole], the pest or weed control at 500 ppm (in the assay with tobacco whitefly; in the assay on rice brown planthopper; in assay [1]) was ≥ 90% throughout.

For the compound `FC(F)(F)c1ccc2oc(-c3ccncc3OC3CCCC3)nc2c1` [active compound 115, 2-(3-cyclopentyloxypyridin-4-yl)-5-(trifluoromethyl)benzoxazole], the pest or weed control at 500 ppm in assay [1] is ≥ 90%.

For the compound `CC(C)COc1cnccc1-c1nc2cc(C(F)(F)F)ccc2o1` [active compound 116, 2-(3-isobutoxypyridin-4-yl)-5-(trifluoromethyl)benzoxazole], in assay [1], the pest or weed control at 500 ppm was ≥ 90%.

For the compound `CCC(C)Oc1cnccc1-c1nc2cc(C(F)(F)F)ccc2o1` (stereo not shown) [active compound 119, 2-(3-sec-butoxypyridin-4-yl)-5-(trifluoromethyl)benzoxazole], the pest or weed control at 500 ppm with cotton aphids was ≥ 90%.

As to `COCCOc1cnccc1-c1nc2cc(C(F)(F)F)ccc2o1` [active compound 120, 2-[3-(2-methoxyethoxy)pyridin-4-yl]-5-(trifluoromethyl)benzoxazole], the pest or weed control at 500 ppm in the assay with cotton aphids is ≥ 90%.

`FC(F)(F)c1ccc2oc(-c3ccncc3-c3cccnc3)nc2c1` [active compound 128, 4-(5-trifluoromethyl-benzoxazole-2-yl)-[3,3′]bipyridinyl]: the pest or weed control at 500 ppm with cotton aphids is ≥ 90%.

In the case of `CN(C)c1cnccc1-c1nc2cc(C(F)(F)F)ccc2o1` [active compound 131, dimethyl-{4-[5-(trifluoromethyl)benzoxazole-2-yl]pyridin-3-yl}amine], the pest or weed control at 500 ppm in the assay with cotton aphids is ≥ 90%.
